Measurements taken from patent US6906093B2, “Indolinone combinatorial libraries and related products and methods for the treatment of disease” (Sugen, Inc., priority 1995, dated 2005).
Where two headings read alike, the source gives them in different places.

Legend:
FLK-1 receptor = target: T1, FLK-1 receptor (Mus musculus, UniProt P35918); experiment: FLK-1 ELISA in FLK-1/NIH3T3 cells; format: cell-based
T1 construct: expressed in transfected cells; host or cells: NIH3T3 C7 #3

EGFR = target: T2, EGFR (Homo sapiens, UniProt P00533); experiment: EGF-Induced BrdU Incorporation Assay in 3T3/EGFR cells; format: cell-based; conditions: EGF ligand; read-out: Mitogenesis in 3T3/EGFR Cells, BrdU Incorporation, EGFR EGF Ligand IC50
T2 construct: expressed in transfected cells; host or cells: NIH 3T3/C7 (3T3/EGFRc7)
T2 sequence (P00533 25-1210): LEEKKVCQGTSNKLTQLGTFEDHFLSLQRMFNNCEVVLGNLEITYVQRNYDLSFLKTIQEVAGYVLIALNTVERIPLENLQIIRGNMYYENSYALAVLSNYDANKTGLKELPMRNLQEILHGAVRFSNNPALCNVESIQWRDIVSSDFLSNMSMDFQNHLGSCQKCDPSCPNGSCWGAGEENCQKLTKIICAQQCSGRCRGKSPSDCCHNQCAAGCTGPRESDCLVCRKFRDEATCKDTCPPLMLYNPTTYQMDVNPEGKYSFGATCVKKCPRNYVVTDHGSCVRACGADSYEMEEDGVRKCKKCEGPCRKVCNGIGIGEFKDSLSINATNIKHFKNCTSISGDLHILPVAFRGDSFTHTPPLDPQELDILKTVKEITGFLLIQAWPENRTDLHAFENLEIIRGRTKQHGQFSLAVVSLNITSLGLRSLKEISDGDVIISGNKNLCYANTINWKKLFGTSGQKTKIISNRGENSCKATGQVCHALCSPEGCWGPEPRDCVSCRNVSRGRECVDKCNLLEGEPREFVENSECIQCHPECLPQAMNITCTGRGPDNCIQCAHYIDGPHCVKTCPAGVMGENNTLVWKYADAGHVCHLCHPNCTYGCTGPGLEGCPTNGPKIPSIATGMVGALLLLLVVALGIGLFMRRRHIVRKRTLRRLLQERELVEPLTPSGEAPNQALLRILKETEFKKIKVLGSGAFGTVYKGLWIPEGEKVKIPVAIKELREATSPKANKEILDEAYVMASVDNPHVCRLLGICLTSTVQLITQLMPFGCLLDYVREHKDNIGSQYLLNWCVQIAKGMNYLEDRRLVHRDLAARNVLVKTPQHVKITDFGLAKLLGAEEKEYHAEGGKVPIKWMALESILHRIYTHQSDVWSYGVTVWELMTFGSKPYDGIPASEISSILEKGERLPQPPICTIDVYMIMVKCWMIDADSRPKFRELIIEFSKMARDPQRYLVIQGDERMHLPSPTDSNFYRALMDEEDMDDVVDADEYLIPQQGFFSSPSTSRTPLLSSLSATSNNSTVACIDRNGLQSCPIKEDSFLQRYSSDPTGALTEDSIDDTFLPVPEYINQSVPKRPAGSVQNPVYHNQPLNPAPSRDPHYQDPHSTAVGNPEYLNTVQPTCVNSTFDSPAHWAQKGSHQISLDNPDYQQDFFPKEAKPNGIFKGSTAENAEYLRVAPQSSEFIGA
Protocol: Assay 2: EGF-Induced BrdU Incorporation Assay
Protocol • (1) 3T3 engineered cell line: 3T3/EGFRc7 • (2) Cells are seeded at 8000 cells/well in 10% CS, 2 mM Gln in DMEM, in a 96 well plate. […] The negative control wells receive serum free DMEM with 0.1% BSA only; the positive control cells receive the ligand (EGF) but no test compound. […] FixDenat solution is added (50 μl/well) and the plates are incubated at room temperature for 45 minutes on a plate shaker. • (7) The FixDenat solution is thoroughly removed by decanting and tapping the inverted plate on a paper towel. Milk is added (5% dehydrated milk in PBS, 200 μl/well) as a blocking solution and the plate is incubated for 30 minutes at room temperature on a plate shaker. • (8) The blocking solution is removed by decanting and the wells are washed once with PBS. Anti-BrdU-POD solution (1:100 dilution in PBS, 1% BSA) is added (100 μl/well) and the plate is incubated for 90 minutes at room temperature on a plate shaker. • (9) The antibody conjugate is thoroughly removed by decanting and rinsing the wells 5 times with PBS, and the plate is dried by inverting and tapping on a paper towel. • (10) TMB substrate solution is added (100 μl/well) and incubated for 20 minutes at room temperature on a plate shaker until color development is sufficient for photometric detection. • (11) The absorbance of the samples are measured at 410 nm (in “dual wavelength” mode with a filter reading at 490 nm, as a reference wavelength) on a Dynatech ELISA plate reader.

HUV-EC-C cells [1] = experiment: HUV-EC-C assay, a-FGF (ECGF)-induced [3H]thymidine incorporation; format: cell-based, human; conditions: a-FGF-stimulated HUV-EC cells, read-out: Mitogenesis in Endothelial Cells, [3H] Thymidine Incorporation, HUV-EC Assay, a-FGF
Protocol: (§1) Repeat the wash two more times with D-PBS, resuspend the cells in about 1 ml assay medium/15 cm^2 of tissue culture flask.
(§2) Add cells to 96-well flat-bottom plates at 100 μl/well or 0.8-1.0×10^4 cells/well; incubate ˜24 h at 37° C., 5% CO2.
(§3) Use the same assay medium as mentioned in day 0, step 2 above. Titrations are made by adding 90 μl/well of drug at 200 μM (4× the final well concentration) to the top well of a particular plate column. Since the stock drug concentration-is usually 20 mM in DMSO, the 200 μM drug concentration contains 2% DMSO.
(§4) Therefore, diluent made up to 2% DMSO in assay medium (F12K+0.5% fetal bovine serum) is used as diluent for the drug titrations in order to dilute the drug but keep the DMSO concentration constant. Add this diluent to the remaining wells in the column at 60 μl/well. Take 60 μl from the 120 μl of 200 μM drug dilution in the top well of the column and mix with the 60 μl in the second well of the column. Take 60 μl from this well and mix with the 60 μl in the third well of the column, and so on until two-fold titrations-are completed. When the next-to-the-last well is mixed, take 60 μl of the 120 μl in this well and discard it. Leave the last well with 60 μl of DMSO/media diluent as a non-drug-containing control. […] 9 columns of titrated drug, enough for triplicate wells each for 1) VEGF (obtained from Pepro Tech Inc., catalogue no. 100-200, 2) endothelial cell growth factor (ECGF) (also known as acidic fibroblast growth factor, or aFGF) (obtained from Boehringer Mannheim Biochemica, catalogue no. […] ECGF comes as a preparation with sodium heparin.
(§5) Transfer 50 μl/well of the drug dilutions to the 96-well assay plates containing the 0.8-1.0×10^4 cells/100 μl/well of the HUV-EC-C cells from day 0 and incubate ˜2 h at 37° C., 5% CO2.
(§6) In triplicate, add 50 μl/well of 80 μg/ml VEGF, 20 ng/ml ECGF, or media control to each drug condition. As with the drugs, the growth factor concentrations are 4× the desired final concentration. Use the assay media from day 0 step 2 to make the concentrations of growth factors.
Freeze plates overnight at −20° C.

HUV-EC-C cells [2] = experiment: HUV-EC-C assay, VEGF-induced [3H]thymidine incorporation; format: cell-based, human; conditions: VEGF-stimulated HUV-EC cells, read-out: Mitogenesis in Endothelial Cells, [3H] Thymidine Incorporation, HUV-EC Assay, VEGF
Protocol: as §1, §2, §3, §4, §5, §6
Freeze plates overnight at −20° C.

[3] = ELISA, FLK-1/NIH3T3 cells, VEGF stimulated

T1 sequence (P35918 20-1345): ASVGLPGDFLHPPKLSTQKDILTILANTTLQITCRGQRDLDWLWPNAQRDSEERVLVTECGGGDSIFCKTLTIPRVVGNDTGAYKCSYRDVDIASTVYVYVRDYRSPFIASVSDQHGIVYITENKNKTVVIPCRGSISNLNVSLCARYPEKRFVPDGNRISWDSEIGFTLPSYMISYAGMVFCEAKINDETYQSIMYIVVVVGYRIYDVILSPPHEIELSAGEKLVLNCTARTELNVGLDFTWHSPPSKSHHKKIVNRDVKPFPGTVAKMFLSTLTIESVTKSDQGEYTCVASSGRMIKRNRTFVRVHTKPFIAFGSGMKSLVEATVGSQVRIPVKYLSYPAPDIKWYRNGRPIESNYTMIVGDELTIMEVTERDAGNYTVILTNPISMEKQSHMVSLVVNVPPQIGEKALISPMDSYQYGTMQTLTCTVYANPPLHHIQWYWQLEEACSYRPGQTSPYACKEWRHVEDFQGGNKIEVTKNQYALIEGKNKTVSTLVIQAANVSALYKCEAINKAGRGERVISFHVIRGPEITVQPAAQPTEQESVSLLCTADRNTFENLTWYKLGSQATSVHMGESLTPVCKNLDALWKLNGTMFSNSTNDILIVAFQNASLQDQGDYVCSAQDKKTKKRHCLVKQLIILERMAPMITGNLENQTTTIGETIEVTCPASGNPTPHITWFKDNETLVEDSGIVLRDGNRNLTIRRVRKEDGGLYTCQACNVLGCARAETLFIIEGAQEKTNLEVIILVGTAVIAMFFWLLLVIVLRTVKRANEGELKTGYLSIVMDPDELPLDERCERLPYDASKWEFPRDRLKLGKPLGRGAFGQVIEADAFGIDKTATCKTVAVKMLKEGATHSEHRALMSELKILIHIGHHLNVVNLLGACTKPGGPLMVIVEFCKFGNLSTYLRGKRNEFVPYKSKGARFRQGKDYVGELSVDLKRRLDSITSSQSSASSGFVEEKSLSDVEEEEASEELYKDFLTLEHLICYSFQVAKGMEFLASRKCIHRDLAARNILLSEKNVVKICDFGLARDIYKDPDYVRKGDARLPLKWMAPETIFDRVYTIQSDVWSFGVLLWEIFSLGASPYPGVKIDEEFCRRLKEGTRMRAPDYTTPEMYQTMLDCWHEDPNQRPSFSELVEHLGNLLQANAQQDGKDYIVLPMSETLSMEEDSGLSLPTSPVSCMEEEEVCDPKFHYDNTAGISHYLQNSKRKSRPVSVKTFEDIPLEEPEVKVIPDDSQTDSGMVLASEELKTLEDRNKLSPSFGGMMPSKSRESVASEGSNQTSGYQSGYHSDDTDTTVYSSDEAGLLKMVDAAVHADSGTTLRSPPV

Compound | IC50 (FLK-1 receptor; [3]) [µM] | further results
O=C1Nc2ccccc2C1=Cc1ccc(O)cc1Cl [SU4932, 3-(2-chloro-4-hydroxybenzylidenyl)-2-indolinone] | 2.2 | 
O=C1Nc2ccccc2C1=Cc1ccc(N2CCOCC2)cc1 [SU4981, 3-[4-(Morpholin-4-yl)benzylidenyl]-2-indolinone] | 2.1 | IC50 (EGFR): 20 µM
Cc1cnc(C=C2C(=O)Nc3ccccc32)[nH]1 [SU5468, 3-[(5-Methylimidazol-2-yl)methylene]-2-indolinone] | 2.7 | 
Cc1csc(C=C2C(=O)Nc3ccccc32)c1 [SU5401, 3-[(4-Methylthien-2-yl)methylene]-2-indolinone] | 2.9 | 
Cc1cc(C=C2C(=O)Nc3ccccc32)[nH]n1 [SU5472, 3-[(3-Methylpyrazol-5-yl)methylene]-2-indolinone] | 8.7 | 
O=C1Nc2ccccc2C1=Cc1ccco1 [SU4798, 3-[(furan-2-yl)methylene]-2-indolinone] | 28.8 | 
Cc1cnc(C=C2C(=O)Nc3ccccc32)s1 [SU5469, 3-[(5-Methylthiazol-2-yl)methylene]-2-indolinone] |  | IC50 (EGFR): 28 µM
O=C1Nc2ccccc2C1=Cc1cnc[nH]1 [SU5473, 3-[(Imidazol-4-yl)methylene]-2-indolinone] | 1.5 | IC50 (HUV-EC-C cells [1]; Homo sapiens, HUVEC): 14.1 µM; IC50 (EGFR): 54 µM; IC50 (HUV-EC-C cells [2]; Homo sapiens, HUVEC): 1200 nM
Cc1cc[nH]c1C=C1C(=O)Nc2ccccc21 [SU5404, 3-[(3-Methylpyrrol-2-yl)methylene]-2-indolinone] | 0.24 | 
Cc1c(C=O)[nH]c(C=C2C(=O)Nc3ccccc32)c1C [SU5405, 3-[(3,4-Dimethyl-2-formylpyrrole-5-yl)methylene)-2-indolinone] | 23.8 | 
O=C1Nc2ccccc2C1=Cc1n[nH]cc1Cl [SU5474, 3-[(4-Chloropyrazol-3-yl)methylene]-2-indolinone] | 7.4 | 
CC(=O)Nc1ccc(C=C2C(=O)Nc3ccccc32)cc1 [SU4944, 3-(4-Acetylaminobenzylidenyl)-2-indolinone] | 8.5 | 
CCc1ccc(C=C2C(=O)Nc3ccccc32)o1 [SU5431] | 41.2 | 
COc1ccccc1C=C1C(=O)Nc2ccccc21 [SU4949, 3-(2-Methoxybenzylidenyl)-2-indolinone] |  | IC50 (HUV-EC-C cells [1]): 3.7 µM; IC50 (HUV-EC-C cells [2]): 3400 nM
CN(C)c1ccc(C=C2C(=O)N(C)c3ccccc32)cc1 [SU4952, 3-(4-Dimethylaminobenzylidenyl)-1-methyl-2-indolinone] | 22.6 | 
Cc1[nH]c(C=C2C(=O)Nc3ccccc32)c(Br)c1Br [SU5403, 3-[(3,4-Dibromo-5-methylpyrrol-2-yl)methylene]-2-indolinone] | 1.8 | 
Cc1ccsc1C=C1C(=O)Nc2ccccc21 [SU5427, 3-[(3-Methylthien-2-yl)methylene]-2-indolinone] | 4.5 | 
O=C1Nc2ccccc2C1=Cc1ccc([N+](=O)[O-])o1 [SU5432, 3-[(2-Nitrofuran-5-yl)methylene]-2-indolinone] | 22.8 | 
CCc1c(C=C2C(=O)Nc3ccccc32)[nH]c(C(=O)O)c1C [SU5455, 3-[(5-Carboxy-3-ethyl-4-methylpyrrol-2-yl)methylene]-2-indolinone] | 36.2 | 
Cc1c(CCC(=O)O)c[nH]c1C=C1C(=O)Nc2ccccc21 [SU5402, 3-[(3-(2-carboxyethyl)-4-methylpyrrol-5-yl)methylene]-2-indolinone] | 0.4 | 
CN(C)c1c(C=C2C(=O)Nc3ccccc32)cc(C=C2C(=O)Nc3ccccc32)c(N(C)C)c1C#N [SU5218, 2,6-Di-(dimethylamino)-3,5-di-[(indolin-2-one-3-ylidenyl)methyl]-phenylcyanide] | 6.4 | IC50 (HUV-EC-C cells [1]; Homo sapiens, HUVEC): 2.7 µM; IC50 (HUV-EC-C cells [2]; Homo sapiens, HUVEC): 2400 nM
O=C1Nc2ccccc2C1=Cc1c(Br)cnn1Cc1ccc(Cl)cc1 [SU5475, 3-[(4-Bromo-1-(4-chlorobenzyl)pyrazol-5-yl)methylene]-2-indolinone] |  | IC50 (EGFR): 48 µM
CCOC(=O)CCc1c(C=C2C(=O)Nc3ccccc32)[nH]c(C(=O)OCC)c1CC(=O)OCC [SU5465, 3-[(5-Ethoxycarbonyl-3-ethoxycarbonylethyl-4-ethoxylcarbonylmethylpyrrol-2-yl)methylene]-2-indolinone] |  | IC50 (EGFR): 50 µM
Cc1ccc(C=C2C(=O)Nc3ccccc32)s1 [SU5424, 3-[(2-Methylthien-5-yl)methylene]-2-indolinone] | 2.4 | 
COc1cccc(C=C2C(=O)Nc3ccccc32)c1OC [SU4794, 3-(2,3-dimethoxybenzylidenyl)-2-indolinone] | 11.8 | 
O=C1Nc2ccccc2C1=Cc1cccn1-c1ccc(Cl)cc1 [SU5462] |  | IC50 (HUV-EC-C cells [1]): 0.8 µM; IC50 (HUV-EC-C cells [2]): 500 nM
CCCCN(CCCC)c1ccc(C=C2C(=O)Nc3ccccc32)cc1 [SU4979, 3-(4-Di-n-butylaminobenzylidenyl)-2-indolinone] | 20.9 | 

Compound | IC50 (FLK-1 receptor; [3]) [µM] | further results
CCOc1ccccc1C=C1C(=O)Nc2ccccc21 [SU5204, 3-(2-Ethoxybenzylidenyl]-2-indolinone] | 4 | 
O=C1Nc2ccccc2C1=Cc1ccc(Br)s1 [SU5425, 3-[(2-Bromothiene-5-yl)methylene]-2-indolinone] | 51.4 | 
CCc1c(C)[nH]c(C=C2C(=O)Nc3ccccc32)c1C [SU5477, 3-[(4-Ethyl-3,5-dimethylpyrrol-2-yl)methylene]-2-indolinone] | 0.15 | 
CN(C)c1ccc(C=C2C(=O)Nc3ccccc32)cc1 [SU4312, 3-(4-Dimethylaminobenzylidenyl)-2-indolinone] | 0.8 | 
Cc1ccc(C=C2C(=O)Nc3ccccc32)o1 [SU5430, 3-[(2-Methylfuran-5-yl)methylene]-2-indolinone] | 73.4 | 
CCOC(=O)c1c[nH]c(C=C2C(=O)Nc3ccccc32)c1C [SU5463] | 0.18 | IC50 (EGFR): 23 µM
CC(=O)Nc1ccc(C=C2C(=O)Nc3ccccc32)cc1 [SU4799, 3-(4-acetamidobenzylidenyl)-2-indolinone] | 9 | 
O=C1Nc2ccccc2C1=Cc1cccs1 [SU5208, 3-[(Thien-2-yl)methylene]-2-indolinone] | 4.7 | 
O=C1Nc2ccc(Cl)cc2C1=Cc1ccc(N2CCOCC2)cc1 [SU4983, 5-Chloro-3-(4-(morpholine-4-yl)benzylidenyl)-2-indolinone] | 4.1 | 
CCOC(=O)c1c(C)[nH]c(C=C2C(=O)Nc3ccccc32)c1C [SU5408, 3-[(2,4-Dimethyl-3-ethoxycarbonylpyrrol-5-yl)methylene]-2-indolinone] | 0.07 | 
CCc1c(C=C2C(=O)Nc3ccccc32)[nH]c(C)c1C [SU5453, 3-[(4,5-Dimethyl-3-ethylpyrrol-2-yl)methylene]-2-indolinone] | 0.14 | 
COc1ccc(Br)cc1C=C1C(=O)Nc2ccccc21 [SU4796, 3-(3-bromo-6-methoxybenzylidenyl)-2-indolinone] |  | IC50 (HUV-EC-C cells [1]): 35.8 µM; IC50 (HUV-EC-C cells [2]): 30700 nM
CSc1ccc(C=C2C(=O)Nc3ccccc32)s1 [SU5419, 3-[(2-Methylmercaptothien-5-yl)methylene]-2-indolinone] | 2.3 | 
O=C1Nc2ccccc2C1=Cc1ccc(I)o1 [SU5409] |  | IC50 (HUV-EC-C cells [2]): 26000 nM
CN(C)c1ccc(C=C2C(=O)Nc3ccc(Cl)cc32)cc1 [SU4967, 5-Chloro-3-(4-dimethylaminobenzylidenyl)-2-indolinone] | 11.2 | IC50 (EGFR): 60 µM
Cn1cccc1C=C1C(=O)Nc2ccccc21 [SU5464, 3-[(1-Methylpyrrol-2-yl)methylene]-2-indolinone] | 20.3 | IC50 (EGFR): 95 µM
O=C1Nc2ccccc2C1=Cc1sccc1Br [SU5418, 3-[(3-Bromothiene-2-yl)methylene]-2-indolinone] | 15.4 | 
O=C1Nc2ccccc2C1=Cc1ccc(Cl)c(Cl)c1 [SU5201, 3-(3,4-Dichlorobenzylidenyl)-2-indolinone] |  | IC50 (HUV-EC-C cells [1]): 2.3 µM; IC50 (HUV-EC-C cells [2]): 2500 nM
O=C1Nc2ccccc2C1=Cc1ccc(F)cc1 [SU5205, 3-(4-Fluorobenzylidenyl)-2-indolinone] | 9.6 | 
COC(=O)CCc1c(C)c[nH]c1C=C1C(=O)Nc2ccccc21 [SU5407, 3-{[4-(2-methoxycarbonylethyl)-3-methylpyrrol-5-yl]methylene}-2-indolinone] | 1.1 | IC50 (EGFR): 100 µM
Cc1c[nH]c(C=C2C(=O)Nc3ccccc32)c1C [SU5406, 3-[(3,4-Dimethylpyrrol-2-yl)methylene]-2-indolinone] | 0.17 | 
Cc1cc(C=C2C(=O)Nc3ccccc32)oc1C [SU5421, 3-[(2,3-Dimethylfuran-5-yl)methylene]-2-indolinone] | 4.6 | 
3-[(2-Sulphonylfuran-5-yl)methylene]-2-indolinone sodium salt [SU5428] |  | IC50 (FLK-1 receptor): 8.6 µM
O=C1Nc2ccccc2C1=Cc1ccc(N2CCCC2)cc1 [SU5466, 3-[4-(Pyrrolidin-1-yl)benzylidenyl]-2-indolinone] | 1.6 | IC50 (EGFR): 17 µM
COc1ccc(OC)c(C=C2C(=O)Nc3ccccc32)c1 [SU4793, 3-(2,5-Dimethoxybenzylidenyl)-2-indolinone] | 4.2 | 
O=C1Nc2ccccc2C1=Cc1ccc(-c2cc(C(F)(F)F)cc(C(F)(F)F)c2)o1 [SU5217] |  | IC50 (HUV-EC-C cells [1]): 10.5 µM; IC50 (HUV-EC-C cells [2]): 9600 nM
O=C1Nc2ccc(Cl)cc2C1=Cc1ccc(Br)cc1 [SU4972, 3-(4-Bromobenzylidenyl)-5-chloro-2-indolinone] |  | IC50 (HUV-EC-C cells [1]): 1.4 µM
